From article PMC5065788 (Bioorganic & medicinal chemistry, 2016)
Where two headings read alike, the source gives them in different places. Blank lines part the entries; values can stand above or below the compound they belong to.

Tests used:
recombinant human ER-α [1] = molecular target: T1, recombinant human ER-α (Homo sapiens, UniProt P03372); test: Binding affinity for recombinant human ER-α; settings: at 100 μM (100000 nM)
T1 sequence (P03372 1-595): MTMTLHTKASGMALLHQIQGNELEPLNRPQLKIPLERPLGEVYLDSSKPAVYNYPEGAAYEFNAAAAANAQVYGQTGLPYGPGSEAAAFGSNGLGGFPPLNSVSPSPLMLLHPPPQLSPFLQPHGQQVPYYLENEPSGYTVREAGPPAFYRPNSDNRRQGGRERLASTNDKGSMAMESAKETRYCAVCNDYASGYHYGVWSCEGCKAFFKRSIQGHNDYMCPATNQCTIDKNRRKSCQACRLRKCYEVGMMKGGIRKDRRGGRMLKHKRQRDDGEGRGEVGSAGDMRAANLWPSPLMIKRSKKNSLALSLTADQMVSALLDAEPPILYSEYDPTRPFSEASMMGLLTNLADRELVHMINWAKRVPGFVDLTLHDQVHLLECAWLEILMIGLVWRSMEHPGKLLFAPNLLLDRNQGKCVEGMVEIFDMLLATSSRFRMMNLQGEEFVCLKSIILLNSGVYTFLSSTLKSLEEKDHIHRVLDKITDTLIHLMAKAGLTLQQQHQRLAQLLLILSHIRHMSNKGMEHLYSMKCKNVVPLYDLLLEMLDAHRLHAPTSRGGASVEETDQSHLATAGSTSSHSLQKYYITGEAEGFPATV

recombinant human ER-β [2] = molecular target: T2, recombinant human ER-β (Homo sapiens, UniProt Q92731); test: Binding affinity for recombinant human ER-β; settings: at 100 μM (100000 nM)
[3] = test system: progesterone receptor (PGR) mRNA expression in MCF-7 cells; test: Antagonism of β-estradiol-stimulated progesterone receptor; assay type: cell-based, human; settings: 1 μM compound in the presence of 10 nM β-estradiol, 24 hours
recombinant human ER-α [4] = molecular target: T1, recombinant human ER-α; settings: at 100 μM; previously reported compounds included for comparison; cited from earlier work
recombinant human ER-β [5] = molecular target: T2, recombinant human ER-β; settings: at 100 μM; previously reported compounds included for comparison; cited from earlier work
[6] = molecular target: T3, recombinant human aromatase (CYP19) (Homo sapiens, UniProt P11511); test: Inhibition of recombinant human aromatase; assay type: biochemical; settings: ratio of IC50 values vs 13 (24880 nM)
T3 sequence (P11511 1-503): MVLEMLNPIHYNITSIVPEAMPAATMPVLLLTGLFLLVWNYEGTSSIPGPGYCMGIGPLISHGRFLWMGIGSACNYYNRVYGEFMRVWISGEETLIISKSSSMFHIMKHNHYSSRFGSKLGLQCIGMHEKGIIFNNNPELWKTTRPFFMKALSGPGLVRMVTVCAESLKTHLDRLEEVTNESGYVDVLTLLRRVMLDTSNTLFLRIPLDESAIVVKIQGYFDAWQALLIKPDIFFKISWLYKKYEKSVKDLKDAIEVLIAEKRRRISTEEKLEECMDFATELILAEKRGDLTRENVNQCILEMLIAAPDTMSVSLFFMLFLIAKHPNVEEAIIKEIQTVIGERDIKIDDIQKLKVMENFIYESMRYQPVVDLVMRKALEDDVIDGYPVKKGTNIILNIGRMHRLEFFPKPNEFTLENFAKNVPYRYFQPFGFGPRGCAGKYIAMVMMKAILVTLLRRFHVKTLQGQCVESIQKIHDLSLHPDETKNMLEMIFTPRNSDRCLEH

T2 sequence (Q92731 whole entry): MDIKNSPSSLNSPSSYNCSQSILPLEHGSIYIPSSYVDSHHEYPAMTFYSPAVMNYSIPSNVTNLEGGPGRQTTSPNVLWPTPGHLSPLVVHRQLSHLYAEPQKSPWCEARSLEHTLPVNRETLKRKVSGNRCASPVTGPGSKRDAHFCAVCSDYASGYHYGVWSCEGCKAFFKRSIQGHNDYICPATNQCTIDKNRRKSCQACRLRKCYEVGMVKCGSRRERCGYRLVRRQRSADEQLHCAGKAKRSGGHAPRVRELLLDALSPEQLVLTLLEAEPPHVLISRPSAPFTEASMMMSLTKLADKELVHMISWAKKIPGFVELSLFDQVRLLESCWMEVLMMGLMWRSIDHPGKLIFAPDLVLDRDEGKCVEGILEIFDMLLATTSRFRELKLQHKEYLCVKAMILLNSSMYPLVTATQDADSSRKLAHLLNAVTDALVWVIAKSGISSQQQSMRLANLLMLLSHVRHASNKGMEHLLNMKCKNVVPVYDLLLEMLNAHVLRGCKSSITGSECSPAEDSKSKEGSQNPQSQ

ER-α percent competition (recombinant human ER-α [1]): 0% competition at 100 μM | ER-β percent competition (recombinant human ER-β [2]): 0% competition at 100 μM
Compound: CCC(=C(c1ccc(O)cc1)c1ccc(OCC(N)=O)cc1)c1ccc([N+](=O)[O-])cc1 [Compound 16b, (E,Z)-2-(4-(1-(4-Hydroxyphenyl)-2-(4-nitrophenyl)but-1-enyl)phenoxy)-acetamide]

ER-α percent competition (recombinant human ER-α [1]): 0% competition at 100 μM | ER-β percent competition (recombinant human ER-β [2]): 0% competition at 100 μM
Compound: CC(=C(c1ccc(O)cc1)c1ccc(OCC(N)=O)cc1)c1ccc([N+](=O)[O-])cc1 [Compound 16a, (E,Z)-2-(4-(1-(4-Hydroxyphenyl)-2-(4-nitrophenyl)prop-1-enyl)phenoxy)-acetamide]

Compound: CCC(=C(c1ccc(N)cc1)c1ccc(NCC(N)=O)cc1)c1ccc([N+](=O)[O-])cc1 [Compound 16d, (E,Z)-2-(4-(1-(4-Aminophenyl)-2-(4-nitrophenyl)but-1-enyl)phenylamino)acetamide]
PGR mRNA expression level relative to estradiol (100%) [3]: 19.6%

Compound: CCC(=C(c1ccc(O)cc1)c1ccc(O)cc1)c1ccccc1 [Compound 13, 4-(1-(4-Hydroxyphenyl)-2-phenylbut-1-enyl)phenol]
ER-α percent competition (recombinant human ER-α [4]): 80% competition at 100 μM

Compound: CC/C(=C(/c1ccc(O)cc1)c1ccc(OCC(N)=O)cc1)c1ccccc1 [Compound 17, (E,Z)-2-(4-(1-(4-Hydroxyphenyl)-2-phenylbut-1-enyl)phenoxy)-acetamide]
ER-α percent competition (recombinant human ER-α [4]): 57% competition at 100 μM | ER-β percent competition (recombinant human ER-β [5]): 71% competition at 100 μM

times more potent than 13 against aromatase [6]: 400 times
Compound: CCC(=C(c1ccc(N)cc1)c1ccc(N)cc1)c1ccc([N+](=O)[O-])cc1 [Compound 12d, 4-(1-(4-Aminophenyl)-2-(4-nitrophenyl)but-1-enyl)benzenamine]

times more potent than 13 against aromatase [6]: 113 times
Compound: CC(=C(c1ccc(N)cc1)c1ccc(N)cc1)c1ccc([N+](=O)[O-])cc1 [Compound 12c, 4-(1-(4-Aminophenyl)-2-(4-nitrophenyl)prop-1-enyl)benzenamine]
